Experimental data taken from patent EP1013272A1, “Manipulation of the activity of a nitric oxide radical production pathway for the treatment of diseases associated with the presence of oxygen free radicals” (Biomedical Primate Research Centre (BPRC), priority 1998, dated 2000).

Key:
rat spleen cell cultures = assay: In vivo exposure to HgCl2, then ELISPOT of Con A-stimulated spleen cell cultures; details: for reduction in the ratio of IFN-γ pc/IL-4 pc: day 3 after first HgCl2 injection
Method: (§1) Female BN and Lewis rats at 8 to 12 weeks of age were used in all experiments. Animals were obtained from Harlan CPB (Zeist, The Netherlands) and housed in the animal care facility of our institute and maintained on standard laboratory chow and water ad libitum. For some experiments, rats were injected twice with 1 mg HgCl2/kg body weight by the intraperitoneal route with an interval of 48 h. Four repeated i.p. injections with this dose of HgCl2 at 48 h intervals induce a TH2-biased autoimmune syndrome in BN but not Lewis rats that becomes clinically evident (massive proteinuria) approximately 13 days after the first injection with HgCl2 (16).
The aseptically removed spleen was gently crushed with the blunt end of a 5-ml syringe plunger and passaged through a fine mesh nylon screen. Erythrocytes were hemolysed by adding cold sterile water for 20 sec. to cell pellets followed by the addition of half the volume of 2.7% saline. The number of cells was determined by use of Türk's solution and cell viability by means of trypan blue exclusion. Cell suspensions in which the viability was less than 85% were excluded from the studies. Splenocytes were washed twice with CM5, adjusted to 4 x 10^6 cells/ml, transferred to a 24-well culture plate (1.0 ml/well) and stimulated with Con A (5 µg/ml) in the presence or absence of various supplements (as indicated in the text) for 40 h at 37°C in a humidified atmosphere containing 5% CO2. Thereafter, non-adherent cells were collected and subjected to ELISPOT analyses as described below.
The ELISPOT assay for detecting single cytokine secreting cells has been detailed previously (17). Briefly, the wells of PVC microplates were coated with monoclonal antibodies specific for rat IFN-γ or rat IL-4. After washing and postcoating, 100 µl suspensions of Con A-activated splenocytes were pipetted into the wells. The cells were allowed the produce cytokines for either 4 h (IFN-γ pc) or 16 h (IL-4 pc). Thereafter, cells were lysed for 10 minutes with ice-cold distilled water. Subsequently, the wells were thoroughly washed with PBS containing 0.05% Tween-20. Spots were detected by the sequential incubation of biotinylated rabbit anti-cytokine antibodies and goat anti-biotin antibodies conjugated to alkaline phosphatase (AP). The AP substrate 5-bromo-4-chloro-3-indolyl phosphate was used to produce blue zones ('spots') that visualised the positions of the individual spot-forming cells (SFC). SFC were enumerated by image analysis using a stereo microscope coupled to a colour video camera and Micro Image software from Olympus Optical Co. The frequency of spontaneously occurring SFC was always less than 1% of the mitogen-induced frequency.
Spleens were isolated from rats at 24 h after the second intraperitoneal injection with saline or HgCl2 (1 mg/kg b.w.). Spleen cells were stimulated with Con A (5 µg/ml) in the presence of 2 mM GSH. The experiments were performed at three independent occasions with similar results. At each occasion the ELISPOT analyses were performed in quadruplicate. One representative experiment is presented. Both reduction of IFN-γ pc and enhancement of IL-4 pc (BN splenocytes only) as a result of in vivo exposure to HgCl2 reached in all analyses statistical significance (p < 0.01).

splenocytes = assay: Superoxide anion release by splenocytes after in vivo HgCl2; set-up: species or system rat
Method: as §1
The pMØ monolayers were incubated for 20 h at 37°C in CM10 and subsequently washed (twice) with Hanks' balanced salt solution (HBSS) without phenol red. Thereafter, the cells were treated with PMA and assayed for ^·O2^- production by measuring the rate of SOD-inhibitable ferricytochrome C reduction (20, 21). To that purpose the macrophage monolayer was incubated for 1 h at 37°C with an 1.0 ml reaction mixture containing 100 µM ferricytochrome C in HBSS with or without PMA (100 ng/ml). […] Each test was run in duplicate and the absorption increase at 550 nm was measured using a Beckmann DU-5 spectrophotometer. ^·O2^- release by splenocytes was determined after Con A activation of 4 x 10^6 cells for 20 h. […]

[1] = BN, HgCl2 in vivo, no culture supplement, Con A + 2 mM GSH (Table 4)
[2] = BN, HgCl2 in vivo, no culture supplement, Con A + 2 mM GSH (Table 6)
[3] = BN, HgCl2 1 mg/kg b.w. i.p. twice, spleens 24 h after second injection, Con A 5 µg/ml + 2 mM GSH
[4] = Lewis, HgCl2 in vivo, no culture supplement, Con A + 2 mM GSH (Table 4)
[5] = Lewis, HgCl2 in vivo, no culture supplement, Con A + 2 mM GSH (Table 6)
[6] = Lewis, HgCl2 1 mg/kg b.w. i.p. twice, spleens 24 h after second injection, Con A 5 µg/ml + 2 mM GSH

## [Cl][Hg][Cl] [HgCl2, mercuric chloride]
Rat spleen cell cultures; BN splenocyte cultures
  reduction in the ratio of IFN-γ pc/IL-4 pc: ~6 fold
Rat spleen cell cultures; [1]
  IFN-γ pc per 1x10^4 MNC: 30 ± 8 per 1 x 10^4 MNC
  IL-4 pc per 2x10^5 MNC: 88 ± 14 per 2 x 10^5 MNC
  ratio IFN-γ pc/IL-4 pc: 6.8
Rat spleen cell cultures; [2]
  IFN-γ pc per 1x10^4 MNC: 35 ± 8 per 1x10^4 MNC
  IL-4 pc per 2x10^5 MNC: 87 ± 14 per 2x10^5 MNC
  ratio pc IFN-γ/IL-4: 8
Rat spleen cell cultures; [3]
  IFN-γ pc per 1x10^4 MNC: 34 ± 8 per 1 x 10^4 MNC
  IL-4 pc per 2x10^5 MNC: 101 ± 12 per 2 x 10^5 MNC
  ratio IFN-γ pc/IL-4 pc: 6.7
Rat spleen cell cultures; Lewis splenocyte cultures
  reduction in the ratio of IFN-γ pc/IL-4 pc: ~2 fold
Rat spleen cell cultures; [4]
  IFN-γ pc per 1x10^4 MNC: 104 ± 1 per 1 x 10^4 MNC
  IL-4 pc per 2x10^5 MNC: 11 ± 3 per 2 x 10^5 MNC
  ratio IFN-γ pc/IL-4 pc: 189
Rat spleen cell cultures; [5]
  IFN-γ pc per 1x10^4 MNC: 104 ± 11 per 1x10^4 MNC
  IL-4 pc per 2x10^5 MNC: 13 ± 3 per 2x10^5 MNC
  ratio pc IFN-γ/IL-4: 160
Rat spleen cell cultures; [6]
  IFN-γ pc per 1x10^4 MNC: 103 ± 9 per 1 x 10^4 MNC
  IL-4 pc per 2x10^5 MNC: 12 ± 7 per 2 x 10^5 MNC
  ratio IFN-γ pc/IL-4 pc: 172
splenocytes
  ^·O2^- levels: below the detection limit
